Data published in patent publication US5990317A, “2-(1H-4(5)-imidazoyl) cyclopropyl compounds” (Gliatech, Inc., priority 1998, dated 1999).
Structures can show the parent of a compound that is named as a salt.

The compounds below were run against Histamine H3 receptor (assay: In Vitro Histamine H3 Receptor Binding Analysis ([3H]-N-alpha-methylhistamine displacement, rat cortical membranes)). Details: [3H]-N-alpha-methylhistamine 0.8-1.2 nM, pH 7.4, 40 min, 25° C, read-out: Histamine H3 Receptor Binding Affinities, H3 Receptor Ki.
Procedure: Histamine H3 receptor affinity was determined in rat cortical membranes using the H3 selective agonist ligand, [^3 H]-N^α -methylhistamine (78.9 Ci/mole, DuPont NEN Research Products, Boston, Mass.) according to the method of West et al., (1990) Mol. Pharmacol. 38: 610-613 with modifications. Briefly, animals were sacrificed by decapitation and the cerebral cortex was rapidly removed. Rat cortices were mechanically homogenized with an Omni 1000 motor driven homogenizer in 10 volumes (wt/vol) of Krebs-Ringers Hepes buffer (pH 7.4) containing the following protease inhibitors: EDTA (10 mM), PMSF (0.1 mM), chymostatin (0.2 mg/50 mL) and leupeptin (0.2 mg/50 mL). The homogenate was centrifuged in a Sorvall at ~40,000×g for 30 min. The pellet was resuspended by mechanical homogenization in 25 mL water and lysed on ice for 30 min. The homogenate was recentrifuged and the membrane lysis was repeated. The membranes were recentrifuged and the final pellet was resuspended in 14 volumes of water to give approximately 200 μg protein/100 μl final concentration. The suspension was stored at -80° prior to use. Protein concentrations were determined by Coomassie Plus Protein Assay (Pierce, Rockford, Ill.).
Nonspecific binding (NSB) was accounted for by the inclusion of thioperamide (10 μM). Samples were incubated for 40 minutes at 25° C. The samples were filtered through glass fiber strips, pre-washed with 0.3% polyethyleneimine, using a Brandell cell harvester. The filters were rapidly washed three times with 4 ml of 25 mm Tris buffer containing 145 mM NaCl (pH 7.4, 4° C.). Filters were transferred to polyethylene mini-vials and counted in 3.5 ml of scintillation fluid (Ecolume, ICN Biomedicals, Inc.). […] Saturation and competition experiments were analyzed with the ReceptorFit saturation and competition curve fitting programs (Lundon Software, Ind., Cleveland, Ohio).
`O=C(NCC1CC1)[C@@H]1C[C@H]1c1c[nH]cn1` (relative stereo) [Example 32, (±)-trans-N-(cyclopropylmethyl)(2-imidazol-4-ylcyclopropyl)formamide] gave a Ki of 876 ± 158 nM.
`O=C(Nc1ccccc1)[C@@H]1C[C@H]1c1c[nH]cn1` (relative stereo) [Example 5, N-(phenyl)-3-(1H-imidazol-4-yl)-trans-(2R,3R)-cyclopropanamide and N-(phenyl)-3-(1H-imidazol-4-yl)-trans-(2S,3S)-cyclopropanamide hydrochloride] was tested, and the Ki was 267 ± 26 nM.
`C(=C/[C@@H]1C[C@H]1c1c[nH]cn1)/CCC1CCCCC1` (relative stereo) [Example 16, (±)-trans-4-(2-(4-cyclohexylbut-cis-1-enyl)cyclopropyl)imidazole] gave a Ki of 12.2 ± 1 nM.
Work on `O=C(NCC1CCCCC1)[C@@H]1C[C@H]1c1c[nH]cn1` [Example 2b] yielded a Ki of 176 ± 9 nM.
`O=C(NCCCC1CCCCC1)[C@@H]1C[C@H]1c1c[nH]cn1` (relative stereo) [Example 29, N-[3-cyclohexylpropyl]-3(R)-[1H-imidazoyl-4-yl]-2(R)-cyclopropanamide and N-[3-Cyclohexylpropyl]-3(S)-[1H-imidazoyl-4-yl]-2(R)-cyclopropanamide] was tested, and the Ki was 36 ± 8 nM.
`O=C(NCc1ccccc1)[C@@H]1C[C@H]1c1c[nH]cn1` (relative stereo) [Example 1, N-(1-Benzyl)-3-[(1H-imidazol-4-yl)]-(2R,3R)-trans-cyclopropanamide and N-(1-Benzyl)-3-[(1H-imidazol-4-yl)]-(2S,3S)-trans-cyclopropanamide hydrochloride] was tested, and the Ki was 53 ± 2 nM.
`O=C(NCCCc1ccccc1)[C@@H]1C[C@H]1c1c[nH]cn1` (relative stereo) [Example 33, (±)-trans-(2-imidazol-4-ylcyclopropyl)-N-(3-phenylpropyl)formamide] was tested, and the Ki was 197 ± 23 nM.
With `O=C(N[C@@H]1C[C@H]1c1c[nH]cn1)OCc1ccccc1` (relative stereo) [Example 26, (±)-trans-N-(2-imidazol-4ylcyclopropyl)(phenylmethoxy)formamide] the Ki was 5.8 ± 0.4 nM.
In the case of `O=C(NCCc1ccccc1)[C@@H]1C[C@H]1c1c[nH]cn1` (relative stereo) [Example 9, (±)-trans-(2-imidazol-4-ylcyclopropyl)-N-(2-phenylethyl)formamide], the Ki is reported as 163 ± 19 nM.
`CC1CCCCN1CCCNC(=O)[C@@H]1C[C@H]1c1c[nH]cn1` (relative stereo) [Example 3, (±)-trans-(2-imidazol-4-ylcyclopropyl)-N-(3-((±)-2-methylpiperidyl)formamide] was tested, and the Ki was 659 ± 52 nM.
In the case of `NC(CC1CCCCC1)C(=O)NC1CC1c1c[nH]cn1` [Example 12, (1R,2R)-trans-2(S)-amino-3-cyclohexyl-N-(2-imidazol-4-ylcyclopropyl)propanamide], the Ki is reported as 1.85 ± 0.5 nM.
`O=C(NCCc1c[nH]cn1)[C@@H]1C[C@H]1c1c[nH]cn1` (relative stereo) [Example 34, (±)-trans-(2-imidazol-4-ylcyclopropyl)-N-(2-imidazol-4-ylethyl)formamide] gave a Ki of 227 ± 26 nM.
`C[C@@H](NC(=O)C1CC1c1c[nH]cn1)C1CCCCC1` (mixture of isomers) [Example 6, N-[(R)-1-Cyclohexylethyl]-3-(1H-imidazol-4-yl)-trans-(2R,3R)-cyclopropanamide and N-[(R)-1-Cyclohexylethyl]-3-(1H-imidazol-4-yl)-trans-(2S,3S)-cyclopropanamide hydrochloride] showed a Ki of 70 ± 8.6 nM.
With `C(=C\[C@@H]1C[C@H]1c1c[nH]cn1)/CCC1CCCCC1` (relative stereo) [Example 17, (±)-trans-4-(2-(4-cyclohexylbut-trans-1-enyl)cyclopropyl)imidazole] the Ki was 11 ± 1 nM.
`O=C(NCCCN1CCOCC1)[C@@H]1C[C@H]1c1c[nH]cn1` (relative stereo) [Example 4, (±)-trans-(2-imidazol-4-ylcyclopropyl)-N-(3-morpholin-4-ylpropyl)formamide] gave a Ki of 1400 ± 158 nM.
Compound `O=C(CCCC1CCCCC1)[C@@H]1C[C@H]1c1c[nH]cn1` (racemic) [Example 10, (±)-trans-4-cyclohexyl-1-(2-imidazol-4-ylcyclopropyl)butan-1-one] has a Ki of 97 ± 21 nM.
Compound `O=C(NCC(O)CC1CCCCC1)[C@@H]1C[C@H]1c1c[nH]cn1` (relative stereo) [Example 36, (±)-trans-N-(3-cyclohexyl-2-(±)-hydroxypropyl)(2-imidazol-4-ylcyclopropyl)formamide] has a Ki of 145 nM.
In the case of `OC(CCCC1CCCCC1)[C@@H]1C[C@H]1c1c[nH]cn1` (mixture of isomers) [Example 19, (±)-trans-4-cyclohexyl-1-(2-imidazol-4-ylcyclopropyl)butan-1-ol], the Ki is reported as 160 ± 9 nM.
`O=C(NCC12CC3CC(CC(C3)C1)C2)[C@@H]1C[C@H]1c1c[nH]cn1` (relative stereo) [Example 8, N-[1-Adamantylmethyl]-3-(1H-imidazol-4-yl)-trans-(2R,3R)-cyclopropanamide hydrochloride and N-[1-Adamantylmethyl]-3-(1H-imidazol-4-yl)-trans-(2S,3S)-cyclopropanamide hydrochloride] showed a Ki of 55 ± 6 nM.
`O=C(N[C@H]1C[C@@H]1c1c[nH]cn1)[C@@H]1CC2CCCCC2N1` (stereo partly drawn) [Example 14, (2R,3R)-trans-(7-azabicyclo[43.0]non-(S)-8-yl)-N-(2-imidazol-4-ylcyclopropyl)formamide] was tested, and the Ki was 8.5 ± 0.7 nM.
`O=C(NCCCC1CCCCC1)C1CC1c1c[nH]cn1` (stereo not shown) [Example 30] gave a Ki of 42 ± 7 nM.
`C(=CC1CC1c1c[nH]cn1)CCC1CCCCC1` [Example 23, (1R,2R)-trans-4-(2-(4-cyclohexylbut-cis-1-enyl)cyclopropyl)imidazole] gave a Ki of 6.2 ± 0.8 nM.
`NC(CC1CCCCC1)C(=O)NC1CC1c1c[nH]cn1` [Example 13, (1S,2S)-trans-2(S)-amino-3-cyclohexyl-N-(2-imidazol-4-ylcyclopropyl)propanamide] gave a Ki of 21.5 ± 1.8 nM.
Compound `C(=CC1CC1c1c[nH]cn1)CCC1CCCCC1` [Example 24, (1S,2S)-trans-4-(2-(4-cyclohexylbut-cis-1-enyl)cyclopropyl)imidazole] has a Ki of 108 ± 3.9 nM.
`O=C(N[C@@H]1C[C@H]1c1c[nH]cn1)[C@@H]1CC2CCCCC2N1` (stereo partly shown) [Example 15] was tested, and the Ki was 37 ± 4 nM.
In the case of `O=C(NCC1CCCCC1)[C@H]1C[C@@H]1c1c[nH]cn1` [Example 2a], the Ki is reported as 23 ± 1 nM.
In the case of `O=C(NCC1CCCCC1)[C@@H]1C[C@H]1c1c[nH]cn1` (relative stereo) [Example 2, (±)-trans-N-(cyclohexylmethyl)(2-imidazol-4-ylcyclopropyl)formamide], the Ki is reported as 37 ± 4 nM.
Compound `c1nc([C@@H]2C[C@H]2COCCCC2CCCCC2)c[nH]1` (racemic) [Example 18, (±)-trans-(3-cyclohexylpropoxy)(2-imidazol-4-ylcyclopropyl)methane] has a Ki of 240 ± 6 nM.
Work on `O=C(NCCc1c[nH]c2ccccc12)[C@@H]1C[C@H]1c1c[nH]cn1` (relative stereo) [Example 35, (±)-trans-(2-imidazol-4-ylcyclopropyl)-N-(2-indol-3-ylethyl)formamide] yielded a Ki of 44 ± 73 nM.
`O=C(NCCCCC1CCCCC1)[C@@H]1C[C@H]1c1c[nH]cn1` (relative stereo) [Example 37, (±)-trans-N-(4-cyclohexylbutyl)(2-imidazol-4-ylcyclopropyl)formamide] gave a Ki of 68 nM.
Compound `C(=CC1CC1c1c[nH]cn1)CCC1CCCCC1` [Example 25, (1S,2S)-trans-4-(2-(4-cyclohexylbut-trans-1-enyl)cyclopropyl)imidazole] has a Ki of 56 ± 9 nM.
Compound `NC(C=CC1CC1c1c[nH]cn1)CC1CCCCC1` [Example 21, 1(R)-[1H-imidazol-4-yl]-2(R)-cyclopropyl-5-(S)-amino-6-cyclohexyl-3-cis-hexene] has a Ki of 97.7 ± 28 nM.
For `O=C(NCCC1=CCCCC1)[C@@H]1C[C@H]1c1c[nH]cn1` (relative stereo) [Example 31, N-[2-Cyclohex-1-enyl-ethyl]-3(R)-[1H-imidazol-4-yl]-2(R)-cyclopropanamide HCl salt and N-[2-Cyclohex-1-enyl-ethyl]-3(S)-[1H-imidazol-4-yl]-2(S)-cyclopropanamide HCl salt], the Ki was 294 ± 26 nM.
`C[C@H](NC(=O)C1CC1c1c[nH]cn1)C1CCCCC1` (mixture of isomers) [Example 7, N-[(S)-1-Cyclohexylethyl]-3-(1H-imidazol-4-yl)-trans-(2R,3R)-cyclopropanamide and N-[(S)-1-Cyclohexylethyl]-3-(1H-imidazol-4-yl)-trans-(2S,3S)-cyclopropanamide hydrochloride] showed a Ki of 146 ± 13 nM.
Compound `C(=CC1CC1c1c[nH]cn1)CCC1CCCCC1` [Example 22, (1R,2R)-trans--4-(2-(4-cyclohexylbut-trans-1-enyl)cyclopropyl)imidazole] has a Ki of 2.4 ± 0.2 nM.
With `NC(C=CC1CC1c1c[nH]cn1)CC1CCCCC1` [Example 20, (1R,2R)-trans-1-cyclohexyl-4-(2-imidazol-4-ylcyclopropyl)but-trans-3-en-2(S)-ylamine] the Ki was 0.37 ± 0.2 nM.
Compound `CN(CC1CCCCC1)C(=O)[C@@H]1C[C@H]1c1c[nH]cn1` (racemic) [Example 11, (±)-trans-N-(cyclohexylmethyl)(2-imidazol-4-ylcyclopropyl)-N-methylformamide] has a Ki of 134 ± 13 nM.
